Data set [1] is described as follows: CD interaction of perfume components. It is filed as physicochemical. More on the design: key: cyclodextrin-compatible perfume materials (i.e. having weak CD interaction); cyclodextrin-incompatible enduring (hydrophobic) perfume materials (i.e. having significant or strong CD interaction); cyclodextrin-incompatible enduring (hydrophobic) perfume materials (i.e. having significant or strong CD interaction). The following applies: perfume component with cyclodextrin. The text has this: The following table illustrates the molecular weight property of some of the cyclodextrin-incompatible enduring (hydrophobic) perfume materials (i.e. having significant or strong CD interaction) versus cyclodextrin-compatible perfume materials (i.e. having weak CD interaction).

For data set [2] the following is noted: cited from earlier work.
Data set [3] in a line: Complexation constant with cyclodextrin, spectral displacement method with phenolphthalein. The format is physicochemical. The conditions noted are these: no unit in table, complexation constants in M^−1. The text has this: A spectral displacement method with phenolphthalein is used to determine the complexation constant between cyclodextrin and a given material, especially for surfactants. This method of determining complexation constants with cyclodextrins is described in detail in the following references, which are hereby incorporated herein by reference: Sasaki, K. J., Christian, S. D., and Tucker, E. E., “Study of the Stability of 1:1 Complexes Between Aliphatic Alcohols and b-Cyclodextrins in Aqueous Solution,” Fluid Phase Equilibria, Vol. 49, (Amsterdam, Elsevier Science Publishers, 1989), pp. 281-89. Further information regarding spectral displacement methods can be found in other references, e.g. in Wilson, L. D., Siddall, S. R., and Verrall R. E., “A Spectral Displacement Study of the Binding Constants of Cyclodextrin-Hydrocarbon and—Fluorocarbon Surfactant Inclusion Complexes,” Canadian Journal of Chemistry, Vol. 75, (NRC Canada 1997), pp. 927-933, which is incorporated by reference herein.
The test method is based on the fact that phenolphthalein will complex with cyclodextrin and in complexed form is colorless. However, it has a strong color at pH 10.5 when in non-complexed form. Other, cyclodextrin-incompatible, materials themselves complex with the cyclodextrin and prevent the phenolphthalein from doing so. Thus the higher the complexation constant of the other component with cyclodextrin, the more non-complexed phenolphthalein will be present and the stronger the observed color.
The complexation constant of a given material with cyclodextrin is obtained by an absorbance measurement in the visible region at 550 nm that is performed with a spectrophotometer at room temperature. All solutions are prepared in 4.0×10^−3 mol/l Na2CO3 solution to maintain a constant pH. The concentration of phenolphthalein is kept constant at 3.0×10^−5 mol/l. Cyclodextrin concentration and surfactant concentration are varied. Here, optimum parameter values for absorption coefficient of phenolphthalein at 550 nm is 33,000 M^−1 cm^−1, and the complexation constants of phenolphthalein with cyclodextrin and cyclodextrin derivatives are preliminary obtained. […] Complexation constants of cyclodextrin-compatible and/or cyclodextrin-incompatible materials are determined with using the free, uncomplexed phenolphthalein concentration obtained by absorbance at 550 nm.

Data set [4] in a line: Complexation constant of phenolphthalein with beta-cyclodextrin (absorbance at 550 nm). The format is physicochemical. The conditions noted are these: room temperature, 4.0×10^−3 mol/l Na2CO3, pH 10.5. The text has this: A spectral displacement method with phenolphthalein is used to determine the complexation constant between cyclodextrin and a given material, especially for surfactants. This method of determining complexation constants with cyclodextrins is described in detail in the following references, which are hereby incorporated herein by reference: Sasaki, K. J., Christian, S. D., and Tucker, E. E., “Study of the Stability of 1:1 Complexes Between Aliphatic Alcohols and b-Cyclodextrins in Aqueous Solution,” Fluid Phase Equilibria, Vol. 49, (Amsterdam, Elsevier Science Publishers, 1989), pp. 281-89. Further information regarding spectral displacement methods can be found in other references, e.g. in Wilson, L. D., Siddall, S. R., and Verrall R. E., “A Spectral Displacement Study of the Binding Constants of Cyclodextrin-Hydrocarbon and—Fluorocarbon Surfactant Inclusion Complexes,” Canadian Journal of Chemistry, Vol. 75, (NRC Canada 1997), pp. 927-933, which is incorporated by reference herein. […]
The complexation constant of a given material with cyclodextrin is obtained by an absorbance measurement in the visible region at 550 nm that is performed with a spectrophotometer at room temperature. […] Complexation constants of cyclodextrin-compatible and/or cyclodextrin-incompatible materials are determined with using the free, uncomplexed phenolphthalein concentration obtained by absorbance at 550 nm.

These results are taken from patent US20020010154A1, “Compositions comprising cyclodextrin” (priority 2000, published 2002).

Counter-ions that a name gives are not always drawn.

For `CC(=O)/C=C/C1C(C)=CCCC1(C)C` (centres unmarked) [a-ionone], the CD interaction entry in data set [1] was “strong”. The same measure, in the same setting: the value for `CC(=O)C(C)=C(C)C(C)C(C)(C)C` (centres unmarked) [Koavone] was “strong”; that for `CC1COCc2cc3c(cc21)C(C)(C)C(C)C3(C)C` (centres unmarked) [Galaxolide] was “weak”; that for `CCCCCCCCCCCCCC(=O)OC(C)C` [Iso-propyl Myristate] was “weak”.

With `CC(C=O)Cc1ccc(C(C)(C)C)cc1` (centres unmarked) [Lilial, p-t-bucinal], in data set [1], the CD interaction result was “strong”. The same measure, in the same setting: the value for a-Me Ionone was “strong”. In the case of `[H]/N=C(\N/C(=N/[H])NCCCCCCNC(=N)NC(=N)Nc1ccc(Cl)cc1)Nc1ccc(Cl)cc1` [digluconate salt, 1,1′-hexamethylene bis(5-(p-chlorophenyl)biguanide)], the solubility in water entry in data set [2] is “about 70%”.

Regarding `CC(C=O)Cc1ccc(C(C)C)cc1` (centres unmarked) [Cymal], the CD interaction entry in data set [1] was “strong”. As for `CCCCCCCCCCCCOS(=O)(=O)[O-].[Na+]` [Sodium dodecyl sulfate], the “Complexation Constant (K)” value in data set [3] is “about 22000”.

Regarding `CCCCCC1C(=O)CCC1CC(=O)OC` (centres unmarked) [Methyl Dihydro Jasmonate], the CD interaction result in data set [1] is recorded as “weak”. As to `CCCCCCC(C=O)=Cc1ccccc1` [Hexyl cinnamic Aldehyde], the CD interaction result in data set [1] is given as “weak”. The same measure, in the same setting: as for `CCCCCCOC(=O)c1ccccc1O` [Hexyl Salicylate], the entry is “weak”.

As for `O=C(Cc1ccccc1)OCCc1ccccc1` [Phenyl-Ethyl-Phenyl Acetate], in data set [1], the CD interaction result was “weak”.

With `CC(C)(O)CCCC1=CCC(C=O)CC1` (centres unmarked) [Lyral], in data set [1], the CD interaction result is on record as “weak”.

As to `CCCCCCCCCCCC(=O)[O-].[Na+]` [Sodium laurate], in data set [3], the “Complexation Constant (K)” value was “about 16000”. As to Lauramine oxide, the “Complexation Constant (K)” value in data set [3] is reported as “about 7500”.

Consider `CC(=O)C1(C)CC2=C(CCCC2(C)C)CC1C` (centres unmarked) [Iso-E Super], for which the CD interaction entry in data set [1] was “weak”. As to Laureth-6, the “Complexation Constant (K)” value in data set [3] was “about 10000”.

Consider `CC(=O)OC(C)(C)C1CC=C(C)CC1` (centres unmarked) [Terpinyl Acetate], for which the CD interaction result in data set [1] is “significant”. As to `[H]/N=C(\N/C(=N/[H])NCCCCCCNC(=N)NC(=N)Nc1ccc(Cl)cc1)Nc1ccc(Cl)cc1` [diacetate salt, 1,1′-hexamethylene bis(5-(p-chlorophenyl)biguanide)], the solubility in water entry in data set [2] was “about 1.8%”.

In the case of `CCOC(=O)c1ccccc1C(=O)OCC` [Diethyl Phthalate], the CD interaction entry in data set [1] is on record as “weak”. For `CCC(C)(O)CCCC(C)C` (centres unmarked) [Tetrahydrolinalol], the CD interaction result in data set [1] is reported as “significant”. Regarding `CC(=O)OC1CC2CC1C1CC=CC21` (centres unmarked) [Flor Acetate], the CD interaction entry in data set [1] is reported as “strong”. Same read-out and setting: the value for `CC(=O)OC1CCC(C(C)(C)C)CC1` (centres unmarked) [Vertenex, para-tert-butylcyclohexyl acetate] was “strong”. For `O=C1OC(c2ccc(O)cc2)(c2ccc(O)cc2)c2ccccc21` [phenolphthalein], the “complexation constant of phenolphthalein with beta-cyclodextrin” value in data set [4] is on record as “about 21,000 M^−1”. `CCC(=O)OC1CC2CC1C1CC=CC21` (centres unmarked) [Frutene]: the CD interaction result in data set [1] was “strong”.
